The target of one data set is T1, hPPARβ (Homo sapiens, UniProt Q03181).
T1 sequence (Q03181 171-441 limits assumed): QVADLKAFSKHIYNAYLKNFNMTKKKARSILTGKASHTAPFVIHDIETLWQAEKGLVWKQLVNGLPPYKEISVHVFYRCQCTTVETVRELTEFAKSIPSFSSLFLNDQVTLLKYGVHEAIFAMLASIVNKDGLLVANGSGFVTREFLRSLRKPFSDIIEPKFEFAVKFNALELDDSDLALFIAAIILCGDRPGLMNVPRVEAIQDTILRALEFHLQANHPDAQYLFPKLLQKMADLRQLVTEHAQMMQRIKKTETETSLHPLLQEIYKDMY
The data set is described as follows: Transient transfection assay in HepG2 cells, Gal4-hPPARβ chimeric receptor, luciferase reporter. It counts as cell-based. Particulars: Hep G2-hBeta EC50, 24 hours incubation; read-out: EC50β nM (Group). In a few lines: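 HepG2 cells were transiently co-transfected with Gal4-hPPARα or Gal4-hPPARβ chimeras, a UAS-E1B luciferase reporter and a β-gal normalisation plasmid. After re-plating, cells were treated with compound at 50 pM–50 μM for 24 h at 37°C. EC50 values were derived from luciferase read-out normalised to β-gal.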
(Reporter assays use an easily measured gene product as a stand-in for the process of interest.)

Another data set deals with T2, hPPARα (Homo sapiens, UniProt Q07869).
T2 sequence (Q07869 200-468 limits assumed): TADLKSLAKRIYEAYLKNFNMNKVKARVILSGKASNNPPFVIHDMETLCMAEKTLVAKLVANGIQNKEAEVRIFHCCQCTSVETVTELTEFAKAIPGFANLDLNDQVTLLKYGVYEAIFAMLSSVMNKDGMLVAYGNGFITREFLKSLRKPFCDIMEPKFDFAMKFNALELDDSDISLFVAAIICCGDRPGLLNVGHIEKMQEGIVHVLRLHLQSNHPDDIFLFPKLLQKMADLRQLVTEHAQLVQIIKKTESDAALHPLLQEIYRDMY
The data set is described as follows: Transient transfection assay in HepG2 cells, Gal4-hPPARα chimeric receptor, luciferase reporter. It counts as cell-based. Particulars: Hep G2-hAlpha EC50, 24 hours incubation; read-out: EC50α nM (Group). The method, then:
1. Test A. Transient Transfections Assay using the HepG2 Hepatoma Cell Line.
HepG2 cells were transiently transfected with an expression plasmids encoding hPPARα, hPPARβ or mPPARγ chimeric receptors and a reporter containing the yeast upstream activating sequence (UAS) upstream of the viral E1B promoter controlling a luciferase reporter gene. In addition, the plasmid pRSVβ-gal was used to control for transfection efficiency. HepG2 cells were grown in DMEM supplemented with 10% FBS and 1 μM non-essential amino acid. On the first day, cells were split into 100 mm dishes at 2.5×10^6/dish and incubated overnight at 37° C./5% CO2. On the second day the cells were transiently transfected with plasmid DNA encoding a chimeric receptor, the luciferase reporter gene; and β-gal. For each 100 mm dish, 15 μg of lucifease reporter (PG5E1b) DNA, 15 μg of Gal4-PPAR chimeric receptor DNA, and 1.5 μg of β-gal plasmid DNA were mixed with 1.4 ml of opti-MEM in the tube. 28 μl of LipoFectamine-2000 reagent was added to 1.4 ml of opti-MEM in the tube, and incubate for 5 min at RT. The diluted Lipofectamine-2000 reagent was combined with the DNA mixture, and incubate for 20 min at RT. After fresh medium was added to each 100 mm dish of cells, 2.8 ml of Lipofectamine2000-DNA mixture was added dropwise to the 100 mm dish containing 14 ml of medium, and incubate 37° C. overnight. On day three cells were trypsinized off the 100 mm dishes and re-plated on 96 well plates. Cells were plated at 2.5×10^4 cells per well in 150 μl of media and 50 μl of compound diluted by media was added. The test compound added were in the range from 50 μM to 50 pM. After addition of compounds, the plates were incubated at 37° C. for 24 hours. Subsequently cells were washed with once with 100 μl of PBS, lysed, and processed for measuring luciferase and β-gal activity using Dual-Light luciferase kit from Tropix ®, according to the manufacturer's recommendations, on an EG&G Bethold MicroLumat LB96P luminometer. EC50 values were obtained using the GraphPad Prism™ program.

The structures appear in SMILES notation.

The term melting point denotes the temperature of the solid-liquid transition. Consider `COc1cc(OCC(=O)O)c(C)cc1SCc1ccc(/C=C/c2cccc(F)c2)cc1` [Example 29, (4-{4-[2-(3-Fluoro-phenyl)-vinyl]-benzylsulfanyl}-5-methoxy-2-methyl-phenoxy)-acetic acid], for which the melting point is 154 °C (dec.). Further, the EC50 at hPPARβ was < 300 nM. Further, the EC50 on hPPARα is < 300 nM.
`Cc1cc(SCc2ccc(OCc3ccc(F)cc3F)cc2)ccc1OCC(=O)O` [Example 31, {4-[4-(2,4-Difluoro-benzyloxy)-benzylsulfanyl]-2-methyl-phenoxy}-acetic acid] came in with a melting point of 139 to 141 °C. For the same compound, the EC50 on hPPARβ was > 5000 nM. Further, the EC50 at hPPARα was 1000 to 2000 nM.
The corresponding values for `Cc1cc(SCc2ccc(OCc3ccc(Cl)cc3Cl)cc2)ccc1OCC(=O)O` [Example 32, {4-[4-(2,4-Dichloro-benzyloxy)-benzylsulfanyl]-2-methyl-phenoxy}-acetic acid] are 143 to 145 °C, 300 to 500 nM and 1000 to 2000 nM.
For the compound `COc1ccc(COc2ccc(CSc3ccc(OCC(=O)O)c(C)c3)cc2)cc1` [Example 33, {4-[4-(4-Methoxy-benzyloxy)-benzylsulfanyl]-2-methyl-phenoxy}-acetic acid], the melting point is 150 to 152 °C. Further, on hPPARβ, the EC50 fell in the range of 1000 to 2000 nM. Further, at hPPARα, the EC50 fell in the range of 1000 to 2000 nM.
Consider `Cc1cc(SCc2ccc(OCc3ccc(C(C)(C)C)cc3)cc2)ccc1OCC(=O)O` [Example 34, {4-[4-(4-tert-Butyl-benzyloxy)-benzylsulfanyl]-2-methyl-phenoxy}-acetic acid], for which the melting point fell in the range of 135 to 137 °C. For the same compound, the EC50 at hPPARβ was < 300 nM. Moreover, on hPPARα, the EC50 is < 300 nM.
Take `Cc1cc(SCc2ccc(OCc3ccc(OC(F)(F)F)cc3)cc2)ccc1OCC(=O)O` [Example 35, {2-Methyl-4-[4-(4-trifluoromethoxy-benzyloxy)-benzylsulfanyl]-phenoxy}-acetic acid]: the melting point lay within 141 to 142 °C. In addition, at hPPARβ, the EC50 lay within 300 to 500 nM. In addition, the EC50 at hPPARα is < 300 nM.
In turn, `Cc1cc(SCc2ccc(-c3ccc(C(F)(F)F)cn3)cc2)c2c(c1OCC(=O)O)CCCO2` [Example 36, {6-Methyl-8-[4-(5-trifluoromethyl-pyridine-2-yl)-benzylsulfanyl]-chroman-5-yloxy}-acetic acid] returned a melting point of 156 to 157 °C. Besides, the EC50 at hPPARβ lay within 2000 to 5000 nM. Besides, the EC50 on hPPARα was < 300 nM.
The corresponding values for `Cc1cc(SCc2ccc(OCc3ccc(F)cc3)cc2)ccc1OCC(=O)O` [Example 57, {4-[4-(4-Fluoro-benzyloxy)-benzylsulfanyl]-2-methyl-phenoxy}-acetic acid] are 154 to 155 °C, 2000 to 5000 nM and 1000 to 2000 nM.
The matching figures for `Cc1cc(SCc2ccc(OCc3cc(Cl)ccc3Cl)cc2)ccc1OCC(=O)O` [Example 59]: 101 to 103 °C, 1000 to 2000 nM and > 5000 nM.
Consider `O=C(O)COc1ccc(SCc2ccc(OCc3ccc(Cl)cc3Cl)cc2)c2c1CCC2` [Example 62, {7-[4-(2,4-Dichloro-benzyloxy)-benzylsulfanyl]-indan-4-yloxy}-acetic acid], for which the melting point is 149 to 150 °C. Also, the EC50 on hPPARβ fell in the range of 1000 to 2000 nM. Further, the EC50 at hPPARα is > 5000 nM.
The matching figures for `O=C(O)COc1ccc(SCc2ccc(OCc3ccc(Cl)c(C(F)(F)F)c3)cc2)c2c1CCC2` [Example 73, {7-[4-(4-Chloro-3-trifluoromethyl-benzyloxy)-benzylsulfanyl]-indan-4-yloxy}-acetic acid]: 151 to 152 °C, < 300 nM and 2000 to 5000 nM.
The corresponding values for `O=C(O)COc1ccc(SCc2ccc(OCc3ccc(F)c(C(F)(F)F)c3)cc2)c2c1CCC2` [Example 74, {7-[4-(4-Fluoro-3-trifluoromethyl-benzyloxy)-benzylsulfanyl]-indan-4-yloxy}-acetic acid] are 116 to 117 °C, < 300 nM and 2000 to 5000 nM.
The corresponding values for `O=C(O)COc1ccc(SCc2cccc(OCc3ccc(C(F)(F)F)cc3)c2)c2c1CCC2` [Example 79, {7-[3-(4-Trifluoromethyl-benzyloxy)-benzylsulfanyl]-indan-4-yloxy}-acetic acid] are 145 to 146 °C, 300 to 500 nM and > 5000 nM.
On to `O=C(O)COc1ccc(SCc2ccccc2OCc2ccc(C(F)(F)F)cc2)c2c1CCC2` [Example 81, {7-[2-(4-Trifluoromethyl-benzyloxy)-benzylsulfanyl]-indan-4-yloxy}-acetic acid], for which the melting point is 150 to 152 °C. The EC50 at hPPARβ was < 300 nM. At hPPARα, the EC50 is > 5000 nM.
The matching figures for `Cc1cc(SCc2ccc(-c3ccc(C(F)(F)F)cn3)cc2)c2c(c1OCC(=O)O)CCO2` [Example 92, {5-Methyl-7-[4-(5-trifluoromethyl-pyridin-2-yl)-benzylsulfanyl]-2,3-dihydro-benzofuran-4-yxoly}-acetic acid]: 155 to 157 °C, < 300 nM and < 300 nM.
In turn, `O=C(O)COc1ccc(SCc2cc(-c3ccc(Cl)cc3)on2)c2c1CCC2` [Example 97, {7-[5-(4-Chloro-phenyl)-isoxazol-3-ylmethylsulfanyl]-indan-4-yloxy}-acetic acid] displayed a melting point of 157 to 159 °C. Also, the EC50 at hPPARβ lay within 500 to 1000 nM. Further, the EC50 on hPPARα was > 5000 nM.

The values above are taken from patent publication US6964983B2, “Compounds that modulate PPAR activity and methods for their preparation” (Warner-Lambert Company, LLC, priority 2002, dated 2005).
